In patent US10478390B2, “Use of glycosides to increase hair mass” (L'OREAL, priority 2015, dated 2019):

Test system: hair follicles from biopsies of human scalps
Assay: Hair follicles cultured in vitro for 8 days: increase in the diameter of the hair shaft (fiber)
Type: cell-based
Conditions: for average % of increase of the diameter of the shafts: same test as for proxylane, method states each glycoside at 10 μM, d0 to d8; for average % of increase between D0 and D8: PX 1 mM, hair shaft diameter
Protocol: The hair follicles come from biopsies of human scalps, from cosmetic surgery operations conducted on white Caucasian women aged 45 to 75 years.
The hair follicles are dissected according to the method described in patent application FR 2 736 721 and U.S. Pat. No. 5,712,169, and only the terminal anagen and pigmented hair follicles are studied.
Freshly dissected hair follicles are introduced into multi-well plates containing 500 μL of William's medium, Invitrogen reference 22551022, enriched with insulin to […], 10 ng/mL of hydrocortisone, 10 μg/mL of L-Glutamine and 0.5% antibiotics (Gibco, reference 15240-096).
The C-glycosides are then incubated versus a vehicle alone (control condition), the hair follicles are placed in the incubator (37° C., 5% CO2) and kept alive in these different conditions for 8 days. The culture mediums (of the treated and control conditions) are replaced every two days.
Each glycoside is studied at 10 μM, (dilution of the solid compound in water), versus the vehicle alone (water) for the control condition.
Each condition is carried out on 12 different hair follicles, which makes it possible to overcome inter-follicle variabilities, and repeated over 3 different subjects (biopsies of scalp from 3 different volunteers) in order to evaluate the robustness of the results, and to overcome inter-donor variability.
During the 8 days of treatment, all of the hair follicles are observed and photographed every two days in order to evaluate the maintaining of their survival. They are also measured using a binocular magnifier (Leica) provided with a micrometric eyepiece in order to ensure the proper growth thereof.
The diameter of the hair shaft is measured using photographs taken of all of the hair follicles at d0 and at d8. Using the Leica Application Suite software (Leica), the hair shaft is cropped, its surface is then calculated and its average diameter is determined. The increase in the diameter of the fiber generated in vitro is determined by: (average diameter at d8 Dd8−average diameter at d0 Dd0)*100/Dd0.

COc1cc(CCC(O)CC2OC[C@@H](O)[C@H](O)[C@H]2O)ccc1O (stereo partly drawn) [Glycoside 2, (3R,4S,5R)-2-[2-hydroxy-4-(4-hydroxy-3methxyphenyl)butyl] tetrahydro-2Hpyran-3,4,5-triol]
average % of increase of the diameter of the shafts: 12.7%

O[C@H]1[C@H](O)COC(OCCc2ccccc2)[C@@H]1O (stereo partly drawn) [Glycoside 3, 2-phenylethyl D-xylopyranoside]
average % of increase of the diameter of the shafts: 16%

OC1OC[C@@H](O)[C@H](O)[C@H]1O (stereo partly drawn) [Glycoside 4, D-xylose]
average % of increase of the diameter of the shafts: 11%

CC(O)C[C@@H]1OC[C@@H](O)[C@H](O)[C@H]1O (stereo partly drawn) [PX, 1,5-anhydro-6,8-dideoxy-L-gluco-octitol (Proxylane)]
thickness of the newly-formed hair shaft (for each subject, in the presence of proxylane): increase in the thickness of the newly-formed hair shaft is observed | average % of increase between D0 and D8 (individual 1, control +9.7): +17.5% | average % of increase between D0 and D8 (individual 2, control +2.7): +11.2% | average % of increase between D0 and D8 (individual 3, control +4.3): +14.5%
